Results: US11421145B2, “Oil recovery methods using a formulation containing an unsaturated zwitterionic surfactant and a polymer” (King Fahd University of Petroleum and Minerals, priority 2019, dated 2022)

Experiment: Solubility and compatibility in seawater (SW) and formation water (FW)
Assay type: physicochemical
Details: seawater and formation water
Method: Synthetic seawater (SW) and formation water (FW) were prepared using NaCl, Na2SO4, NaHCO3, CaCl2, and MgCl2. All the salts were obtained from Sigma-Aldrich, USA.
Solubility and compatibility of the surfactant in the reservoir and injection brine are the primary considerations for further evaluation of the unsaturated surfactant for EOR application. If the surfactant is not soluble in the seawater and formation brine, it can be rejected at the initial stage. […] After the compatibility test with SW and FW, the short-term thermal stability of the synthesized unsaturated surfactant was evaluated using TGA analysis. […] Only 3% weight loss was observed up to 200° C., which was mainly associated with solvent and water evaporation. […] TGA results helped to identify and eliminate the surfactants that had lower decomposition temperatures. However, for real field applications, long-term thermal stability of the surfactant must be considered, as the surfactant residence time in the reservoir could vary from a few days to a few months.

Compound: CCCCCCCCCCCCCCCCCC(=O)NCCC[N+](C)(C)CCCS(=O)(=O)[O-] [3-(N-stearamidopropyl-N,N-dimethylammonium)propanesulfonate, reference compound]
- solubility in SW and FW: poor solubility
